Experimental findings from patent US20170216350A1, “COMPOSITIONS OF ALUMINUM FLUORIDE AND METHODS OF USE THEREOF FOR THE TREATMENT AND PREVENTION OF ACTINIC KERATOSIS AND SUN-INDUCED DAMAGES” (priority 2012, published 2017) are described below.

For the assay, the system named is actinic keratosis lesions. As to conditions: twice daily. The text has this:
A cream was applied on dry skin, on the whole forehead, twice daily. Aluminum fluoride at 0.30% w/w was used in a base cream containing Caprylic/Capric acids, sulfur, resorcinol, medium chain triglycerides, PEG 400, Pluronic F127, Ylang ylang oil and water .
Patient 2 is a person having actinic keratosis on their nose, in particular, two ulcers of about 1 mm each. The aluminum fluoride composition was at 0.30% w/w, and the base cream was modified to a cream containing deionized water, arachidyl alcohol, behenyl alcohol, arachidyl glucoside, montanoV 202, cetearyl alcohol, capric/caprilic triglyceride, isopropyl palmitate, steareth-2, dimethicon, steareth-20, allantoin, propylene glycol, Methylisothiazolinone (sheromix MT) and sodium benzoate.
A cream was applied on dry skin, on the cheek, twice daily. Aluminum fluoride at 0.30% w/w was used in a base cream containing Caprylic/Capric triglycerides, a polyethylene glycol component, hydrophilic non-ionic surfactant and purified water.
A cream was applied on dry skin, on the whole forehead, twice daily. Aluminum fluoride at 0.30% w/w was used in a base cream containing Caprylic/Capric triglycerides, a polyethylene glycol component, hydrophilic non-ionic surfactant and purified water.

In the case of aluminum fluoride, where the note is “Patient 1, 8th decade, 0.30% w/w in base cream (Caprylic/Capric acids, sulfur, resorcinol, MCT, PEG 400, Pluronic F127), whole forehead, 3 weeks”, the “actinic keratosis lesions (FIG. 1A/1B)” value was “gradual disappearance of lesions”. Under “Patient 2, 0.30% w/w in modified base cream”, the “vascularization (FIG. 2(ii) compared to FIG. 2(i))” value is recorded as “major decrease in vascularization”. The “actinic keratosis ulcers on nose (two ulcers of about 1 mm each)” value (Patient 2, 0.30% w/w in modified base cream, after approximately three weeks) is “closure of the first ulcer and disappearance of the second ulcer”. Further, the “actinic keratosis lesions (FIG. 3A/3B)” value (Patient 6, 6th decade, 0.30% w/w in base cream (Caprylic/Capric triglycerides, polyethylene glycol component, non-ionic surfactant, water), cheek, 12 weeks) is “disappearance of lesions”. Moreover, the “actinic keratosis lesions (FIG. 4A/4B)” value (Patient 13, 6th decade, 0.30% w/w in base cream (Caprylic/Capric triglycerides, polyethylene glycol component, non-ionic surfactant, water), whole forehead, 10 weeks) is listed as “disappearance of lesions”.
